Test results: US20260085067A1, “CYCLIC SULFONAMIDE RIBONUCLEOTIDE REDUCTASE (RNR) INHIBITORS AND USES THEREOF” (Boundless Bio, Inc., priority 2022, published 2026)

How the values were obtained:
[1] = biological target: T1, RNR (RNR1:RNR2 1:1) (Homo sapiens, UniProt P23921); assay: RNR enzyme activity, rapid-fire mass spectrometry (RF/MS) assay; type: biochemical; conditions: [RNR] 50 nM, 1:1 RNR1:RNR2; CDP 5 μM; ATP 1 mM; 37° C., 45 min; compounds screened up to 50 μM
T1 sequence (P23921 1-792): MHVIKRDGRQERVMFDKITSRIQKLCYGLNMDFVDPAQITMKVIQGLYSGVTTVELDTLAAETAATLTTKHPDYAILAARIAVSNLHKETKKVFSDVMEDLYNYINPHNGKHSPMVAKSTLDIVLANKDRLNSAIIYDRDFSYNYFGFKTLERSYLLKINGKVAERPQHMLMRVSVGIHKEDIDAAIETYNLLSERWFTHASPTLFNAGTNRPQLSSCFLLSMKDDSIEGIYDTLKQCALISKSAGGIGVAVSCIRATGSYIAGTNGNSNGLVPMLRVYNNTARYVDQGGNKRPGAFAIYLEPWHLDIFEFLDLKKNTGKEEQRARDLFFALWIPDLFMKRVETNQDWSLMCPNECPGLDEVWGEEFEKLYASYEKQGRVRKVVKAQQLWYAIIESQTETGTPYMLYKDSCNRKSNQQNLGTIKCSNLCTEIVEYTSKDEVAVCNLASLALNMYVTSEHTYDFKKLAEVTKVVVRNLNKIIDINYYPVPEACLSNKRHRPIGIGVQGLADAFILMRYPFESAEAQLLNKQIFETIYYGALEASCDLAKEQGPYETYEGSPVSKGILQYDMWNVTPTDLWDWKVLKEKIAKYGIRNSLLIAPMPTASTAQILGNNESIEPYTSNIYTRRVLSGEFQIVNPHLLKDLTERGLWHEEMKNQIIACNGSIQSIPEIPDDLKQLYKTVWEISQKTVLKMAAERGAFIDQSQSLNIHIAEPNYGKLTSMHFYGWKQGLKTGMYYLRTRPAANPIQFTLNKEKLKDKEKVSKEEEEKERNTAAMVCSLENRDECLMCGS
Outline: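 Human RNR (50 nM final, RNR1:RNR2 1:1) pre-incubated 15 min at room temperature, then reacted 45 min at 37 °C with 5 μM CDP and 1 mM ATP, no NADPH. Reaction quenched with 6% HCOOH; product quantified by rapid-fire mass spectrometry.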

[2] = tested on: human hepatocytes; assay: Human hepatocyte stability assay; type: in vitro ADME; conditions: 0.5×10^6 viable cells/ml, time points 0.5 and 60 minutes
Protocol: 1. 10 mM stock solutions of test compounds and positive control were prepared in DMSO. Thawing medium and supplement incubation medium (serum-free) were placed in a 37° C. water bath for at least 15 minutes prior to use.
2. Stock solutions were diluted to 100 μM by combining 198 μL acetonitrile and 2 μL of 10 mM stock solution. Verapamil was use as positive control in the assay.
3. Vials of cryopreserved human hepatocytes were removed from storage, while ensuring that vials remain at cryogenic temperatures. The pressure was removed by loosening and re-tightening the cap. The vials were thawed in a 37° C. water bath with gentle shaking. Vials remained in the water bath until all ice crystals had dissolved and were no longer visible. Vials were sprayed with 70% ethanol before being transferred to a biosafety cabinet. Then the contents were poured into a 50 mL thawing medium conical tube. Vials were centrifuged at 100 g for 10 minutes at room temperature. Thawing medium was aspirated and hepatocytes were re-suspended with serum-free incubation medium to yield ˜1.5×10^6 cells/mL.
4. Cell viability and density were counted using Cellometer® Vision, and then cells were diluted with serum-free incubation medium to a working cell density of 0.5×10^6 viable cells/ml.
5. Aliquots of 198 μL hepatocytes were dispensed into each well of a 96-well non-coated plate. The plate was placed in the incubator on an orbital shaker at 500 rpm for approximately 10 minutes.
6. Aliquots of 2 μL of the 100 μM test compounds or verapamil were added into respective wells of the non-coated 96-well plate to start the reaction. This assay was performed in duplicate. The plate was incubated in the incubator on an orbital shaker at 500 rpm for the designed time points.
7.25 μL of contents were transferred and mixed with 5 volumes (125 μL) of cold acetonitrile with IS (100 nM alprazolam, 200 nM caffeine, 100 nM labetalol and 100 nM tolbutamide) to terminate the reaction at time points of 0.5 and 60 minutes. Samples were centrifuged for 30 minutes at 3,220 g. Then transfer 100 μL of the supernatant to new 96-well plates for analysis. Add 100 μL of distilled water to each sample and mix for analysis by LC-MS/MS.
All calculations were carried out using Microsoft Excel. Peak areas were determined from extracted ion chromatograms. The in vitro half-life (tin) of the parent compound was determined by regression analysis of the percent parent disappearance vs. time curve. • a. The in vitro half-life (in vitro tin) was determined from the slope value: in vitro t1/2=0.693/k • b. Conversion of the in vitro tin (in min) into the in vitro intrinsic clearance (in vitro CLint, in μL/min/10^6 cells) was done using the following equation: […]

[3] = tested on: pCHK1 (S345) in Colo320 DM cells; assay: Alphalisa assay, detection of pCHK1 (S345) in Colo320 DM cells; type: cell-based, human; conditions: Homo sapiens, COLO 320DM, compound overnight (approximately 16 hours)
Outline: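 Colo320 DM cells plated overnight, then exposed to compound for about 16 h at 37 °C (DMSO <0.5%). Cells lysed and phospho-CHK1 (S345) quantified by AlphaLisa SureFire with sequential 60 min acceptor and donor incubations at room temperature.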

Row | SMILES | IC50 [1] | Clhep [2] | IC50 [3]
1 | COCCCN1CN([C@H](c2n[nH]c(=O)o2)[C@H](C)c2c(F)ccc(C)c2C)S(=O)(=O)c2ccc(Cl)nc21 [Example 48, 5-((1S,2R)-1-(6-chloro-4-(3-methoxypropyl)-1,1-dioxido-3,4-dihydro-2H-pyrido[2,3-e][1,2,4]thiadiazin-2-yl)-2-(6-fluoro-2,3-dimethylphenyl)propyl)-1,3,4-oxadiazol-2 (3H)-one] | < 20 nM | A (0 ml/min/kg ≤ Clhep ≤ 10 ml/min/kg) | ≤ 1000 nM
2 | Cc1ccc(F)c([C@@H](C)[C@@H](c2n[nH]c(=O)o2)N2CN(CCO)c3cc(Cl)ccc3S2(=O)=O)c1C [Example 50, 5-((1S,2R)-1-(6-chloro-4-(2-hydroxyethyl)-1,1-dioxido-3,4-dihydro-2H-benzo[e][1,2,4]thiadiazin-2-yl)-2-(6-fluoro-2,3-dimethylphenyl)propyl)-1,3,4-oxadiazol-2 (3H)-one] | < 20 nM | A (0 ml/min/kg ≤ Clhep ≤ 10 ml/min/kg) | ≤ 1000 nM
3 | CC(=O)c1cc(Cl)cc2c1S(=O)(=O)N([C@H](c1n[nH]c(=O)o1)[C@H](C)c1c(F)ccc(C)c1C)CCO2 [Example 60, 5-((1S,2R)-1-(9-acetyl-7-chloro-1,1-dioxido-3,4-dihydro-2H-benzo[b][1,4,5]oxathiazepin-2-yl)-2-(6-fluoro-2,3-dimethylphenyl)propyl)-1,3,4-oxadiazol-2 (3H)-one] | < 20 nM | B (10 ml/min/kg < Clhep ≤ 20 ml/min/kg) | ≤ 1000 nM
4 | CC(=O)c1cc(Cl)cc2c1S(=O)(=O)N([C@H](c1n[nH]c(=O)o1)[C@H](C)c1c(F)ccc(C)c1C)CN2C [Example 75, 5-((1S,2R)-1-(8-acetyl-6-chloro-4-methyl-1,1-dioxido-3,4-dihydro-2H-benzo[e][1,2,4]thiadiazin-2-yl)-2-(6-fluoro-2,3-dimethylphenyl)propyl)-1,3,4-oxadiazol-2 (3H)-one] | < 20 nM | B (10 ml/min/kg < Clhep ≤ 20 ml/min/kg) | ≤ 1000 nM
